Assay results taken from ChEMBL document CHEMBL4145624, “MDN-0185, an Antiplasmodial Polycyclic Xanthone Isolated from Micromonospora sp. CA-256353” (J Nat Prod, 2018).
pIC50: −log10 of the molar value.

Tested on: Plasmodium falciparum
Assay: Antiplasmodial activity against late-ring/early trophozoite intraerythrocytic stage of synchronized Plasmodium falciparum 3D7 after 72 hrs by LDH assay
Type: functional, organism-based
Conditions: 3D7, 72 h

With `Cc1cc2c(c(=O)[nH]1)C(=O)[C@]1(O)c3c(O)c4c(c5c3[C@@H](C[C@@H]1C2=O)OCO5)O[C@@H]1[C@H](O)C=CC[C@H]1C4=O` the pIC50 was 8.05.
